Patent US10875830B2, “Method of treatment” (priority 2016, dated 2020)
Where two headings read alike, the source gives them in different places.

How the values were obtained:
[1] = test system: PqsABCD; experiment: AQ (HHQ) biosynthesis by PqsABCD, TLC with biosensor overlay; format: cell-based, Pseudomonas aeruginosa; conditions: 200 μM, PAO1-N ΔpqsAHR pBBR-pqsABCD, overnight in LB
Excerpt: To determine whether 4-(4-chlorophenyl)-5-methylene-pyrrol-2-one (Ref. 488) is capable of inhibiting the enzymes (PqsABCD) involved in AQ biosynthesis, the P. aeruginosa PAO1-N ΔpqsAHR was exploited. This mutant cannot produce AQs because the genes coding for the key biosynthetic enzymes (PqsA and PqsH) and regulation (PqsR) have been deleted. To restore AQ production in a PqsR-independent manner in PAO1-N ΔpqsA, the pqsABCD genes were introduced on a plasmid (pBBR pqsABCD; Niewerth et al. 2011). P. aeruginosa PAO1-N ΔpqsAHR and P. aeruginosa PAO1-N ΔpqsAHR pBBR pqsABCD were both incubated overnight in LB with and without 4-(4-chlorophenyl)-5-methylene-pyrrol-2-one (Ref. 488) (200 μM), resuspended to an OD600 1.0. The cultures were extracted with acidified ethyl acetate, the organic phase removed, dried and resuspended in methanol subjected to thin layer chromatography (TLC).
After chromatography using a dichloromethane-methanol mobile phase, the TLC plates were overlaid with a thin agar layer containing the AQ biosensor strain PAO1-L ΔpqsA CTX::pqsA′-luxCDABE (Fletcher et al. 2007) incubated and examined for reporter output (FIG. 13). […] The biosensor strain produces light (FIG. 13 panel C) and pyocyanin (FIG. 13 panel B) in response to AQs that bind to PqsR and activate the pqsA promoter.

[2] = molecular target: T1, PqsR (Pseudomonas aeruginosa, UniProt Q9I4X0); experiment: PQS-dependent pqsA::lux expression in AQ-non producing PAO1-L ΔpqsA (PqsR antagonism); format: cell-based
T1 construct: endogenous in cells; host or cells: P. aeruginosa PAO1-L ΔpqsA, chromosomal pqsA::lux fusion
T1 sequence (Q9I4X0 whole entry, the tested form may be a part): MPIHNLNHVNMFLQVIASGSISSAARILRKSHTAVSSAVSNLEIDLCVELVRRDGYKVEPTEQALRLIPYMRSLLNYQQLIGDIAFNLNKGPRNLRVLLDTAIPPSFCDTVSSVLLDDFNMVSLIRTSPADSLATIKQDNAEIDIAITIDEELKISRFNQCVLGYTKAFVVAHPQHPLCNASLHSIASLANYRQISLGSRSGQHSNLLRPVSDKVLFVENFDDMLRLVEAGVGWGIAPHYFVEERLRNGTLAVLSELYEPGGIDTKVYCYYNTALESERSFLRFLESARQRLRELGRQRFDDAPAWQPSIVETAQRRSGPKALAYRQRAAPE
Excerpt: The inhibitory action of 4-(4-chlorophenyl)-5-methylene-pyrrol-2-one (Ref. 488) may involve inhibition of AQ biosynthesis or 4-(4-chlorophenyl)-5-methylene-pyrrol-2-one (Ref. 488) may behave like an antagonist and block the PQS receptor, PqsR. […] Experiments were therefore designed to determine the nature and degree of 4-(4-chlorophenyl)-5-methylene-pyrrol-2-one (Ref. 488) inhibitory activity.
By using the AQ-non producing P. aeruginosa strain PAO1-L ΔpqsA, pqsA::lux, the EC50 value for the native PqsR agonist, PQS was calculated as ˜2 μM (Ilangovan et al. 2013).
The experiment shown in FIG. 8 was then repeated using 4-(4-chlorophenyl)-5-methylene-pyrrol-2-one (Ref. 488) concentrations of 0, 50, 100 and 200 μM.
A partial agonist is a molecule that can bind to and activate a receptor resulting in a non-complete response compared with a full agonist. […] This contrasts with its activity as an antagonist in the presence of 10 or 40 μM PQS.

[3] = test system: P. aeruginosa PAO1 pqsA::lux; experiment: pqsA::lux promoter fusion biosensor in P. aeruginosa PAO1-L (AQ-dependent quorum sensing); format: cell-based, Pseudomonas aeruginosa; conditions: for IC50: Pseudomonas aeruginosa, PAO1, read-out: IC50, pqsA::lux expression; for inhibition of light output / pqsA expression at high concentrations: FIG. 6 and 7
Protocol: The expression of rhl and las AHL- and the pqsA AQ-synthase genes was evaluated using lux-based lasl (FIG. 1), rhll (FIG. 2) and pqsA (FIG. 3) chromosomally integrated promoter fusions. Luminescence was quantified as a function of bacterial growth. The applicant further determined that none of the lactams is growth inhibitory at 100 μM using a large number of strains (figure not shown).
To determine the relative inhibitory activities (IC50s) of 4-(4-chlorophenyl)-5-methylene-pyrrol-2-one (Ref. 488) and 5-methylene-4-(p-tolyl)pyrrol-2-one (Ref. 491), dose response curves were constructed using the same biosensor strain (P. aeruginosa PAO1 pqsA::lux; Fletcher et al, 2007; Ilangovan et al 2013). This strain produces light in response to the endogenous production of AQs such as PQS and HHQ.

[4] = test system: PAO1-N ΔpqsAHR pqsA'::lux; experiment: PqsR-independent pqsA'::lux expression in PAO1-N ΔpqsAHR; format: cell-based, Pseudomonas aeruginosa; conditions: presence or absence of 40 μM PQS, FIG. 11
Excerpt: PQS is capable of weakly activating pqsA in the absence of PqsR via a mechanism that is not fully understood but appears to depend on the iron chelating properties of PQS. The aim of this experiment was to clarify whether lactam 4-(4-chlorophenyl)-5-methylene-pyrrol-2-one (Ref. 488) is also inhibitory for pqsA expression via the PqsR independent pathway. As previously described, the pqsA′::lux biosensor based on the triple mutant PAO1-N ΔpqsAHR cannot produce AQs and lacks pqsR but still responds to exogenous PQS. This response is however much weaker that the PqsR-dependent response.

[5] = test system: P. aeruginosa PA14 pqsA'::lux; experiment: pqsA'::lux fusion in P. aeruginosa PA14; format: cell-based; conditions: Pseudomonas aeruginosa, PA14, read-out: IC50, pqsA'::lux expression in PA14
Excerpt: To investigate the inhibitory effect of 4-(4-chlorophenyl)-5-methylene-pyrrol-2-one (Ref. 488) on P. aeruginosa PA14, a pqsA′::lux fusion was introduced onto the chromosome.

[6] = test system: P. aeruginosa strain PAO1-L; experiment: pyocyanin production by PAO1-L, visual assessment; format: cell-based, Pseudomonas aeruginosa; conditions: 100 μM (vial 2), 8 h at 37° C., qualitative
Excerpt: Pyocyanin is a blue redox-active secondary metabolite and a putative signalling molecule in P. aeruginosa (Jayaseelan et al, 2014). The pyocyanin biosynthetic (phz) genes are regulated by QS and in part via the transcriptional regulator PqsR acting through PqsE (Rampioni et al 2011).
Although qualitative, this observation offers further confirmation of the inhibitory effects of lactam 4-(4-chlorophenyl)-5-methylene-pyrrol-2-one (Ref. 488) on AQ-dependent QS.

Structure (SMILES) | inhibition of HHQ biosynthesis [1] | mode of action on PQS-dependent pqsA::lux expression ([2]; 488 at 0, 50, 100 and 200 μM, range of PQS, FIG. 9) | restoration of light output by PQS in the presence of the lactam ([2]; 488 at 50, 100, 200 μM, FIG. 9) | partial agonist activity (activation of pqsA expression) ([2]; concentrations up to 800 μM, without PQS, FIG. 10) | fold increase of PQS EC50 caused by the lactam ([2]; fixed concentration of 488 (215 μM)) [fold] | IC50 [3] [µM] | inhibition of light output / pqsA expression at high concentrations [3] | inhibition of the PqsR-dependent pqsA::lux promoter fusion (screen) ([3]; lactams at 100 μM, FIG. 3) | effect on the PqsR-independent expression of pqsA [4] | IC50 [5] [µM] | pyocyanin production [6] | EC50 ([2]; EC50 of PQS for pqsA::lux expression in the presence of lactam 488, fixed concentration of 488 (215 μM), range of PQS concentrations, FIG. 8) [µM] | EC50 ([2]; EC50 of PQS for pqsA::lux expression, PQS alone, PAO1-L ΔpqsA pqsA::lux) [µM] | EC50 ([2]; PQS alone, PAO1-L ΔpqsA pqsA::lux, read-out: EC50 of PQS for pqsA::lux expression) [µM]
C=C1NC(=O)C=C1c1ccc(Cl)cc1 [Lactam 488, 4-(4-chlorophenyl)-5-methylene-pyrrol-2-one] | did not inhibit HHQ biosynthesis | competitive antagonist | fully restoring light output in the presence of 50 μM but not 100 μM or 200 μM | no partial agonist activity | ~15 | 22 | completely inhibited light output | most potent inhibitor | small inhibitory effect | 17.9 | inhibition of pyocyanin production | – | – | –
CCCCCCCc1[nH]c2ccccc2c(=O)c1O [PQS, 2-heptyl-3-hydroxy-4-(1H)-quinolone, reference compound] | – | – | – | – | – | – | – | – | – | – | – | 31 | ~2 | 2
C=C1NC(=O)C=C1c1ccc(C)cc1 [Lactam 491, 5-methylene-4-(p-tolyl)pyrrol-2-one] | – | – | – | – | – | 44 | did not inhibit pqsA expression as strongly | – | – | – | – | – | – | –
